What was measured:
[1] = molecular target: T1, Avi-KRAS WT (2-169) GTP/RAF1 RBD-3xFLAG (51-131) (Homo sapiens, UniProt P01116); experiment: Raf1-KRAS WT-GTP disruption HTRF assay (Biological Example 3); type: binding; settings: KRAS WT, GTP-loaded
T1 construct: Avi-KRAS WT (2-169)
Outline: (§1)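 HTRF PPI read-out (ex 320 nm, em 615 nm) after 1 h RT incubation with shaking; data as % activity vs DMSO (100%), IC50 from curve fit. Complex 50 nM, RBD reagent 75 nM; compound 30-0.005 μM, 3-fold.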

[2] = molecular target: T2, Avi-KRAS G12C (2-169) GTP/RAF1 RBD-3xFLAG (51-131) (Homo sapiens, UniProt P01116, G12C); experiment: Raf1-KRAS G12C-GTP disruption HTRF assay (Biological Example 3); type: binding; settings: KRAS G12C, GTP-loaded
T2 construct: Avi-KRAS G12C (2-169)
Outline: as §1

[3] = molecular target: T3, Avi-KRAS G12D (2-169) GTP/RAF1 RBD-3xFLAG (51-131) (Homo sapiens, UniProt P01116, G12D); experiment: Raf1-KRAS G12D-GTP disruption HTRF assay (Biological Example 3); type: binding; settings: KRAS G12D, GTP-loaded
T3 construct: Avi-KRAS G12D (2-169)
Outline: as §1

[4] = system: MKN1 cells (KRAS amplification); experiment: 3D Cell viability assay in MKN1 cells (Biological Example 6); type: cell-based; settings: MKN (MKN1, KRAS amplification) spheroids, 72 hours
Protocol: (§2) Biological Example 6: 3D Cell viability assay in AsPC-1, SW1900, HPAC, Capan-2, RKN, H358, HCT116, KP-2, H1573, A549, MKN1, and HT1080 cells
(§3) The inhibition of cellular viability as a result of test compound treatment in a spheroid assay was measured using the CellTiter-Glow 3D Cell Viability Assay (Promega).
(§4) On Day 1, 1000 cells per well were seeded in 150 μL of complete growth media supplemented with 10% fetal bovine serum (FBS) and incubated at 37° C., in the presence of 5% CO2 in 96-well ultra-low attachment microplates (Corning) for 48 hours undisturbed to allow spheroids to form.
(§5) Following spheroid formation, cells were treated with compounds diluted in DMSO at 0.25% final DMSO concentration. Compounds were dosed in a 9-point concentration curve with three-fold dilution between concentrations. Cells were incubated in the presence of compound for 72 hours at 37° C., in the presence of 5% CO2.
(§6) Following this incubation period, the kit-provided CTG reagent was allowed to equilibrate for 30 minutes at room temperature, 150 μL of equilibrated CTG reagent was added to each well, and the plate was sealed before shaking at 250 rpm for 10 minutes at room temperature to lyse the cells, 150 μL of lysate per well was transferred to a 96-well plate and luminescence was read on a CLARIOstar plate reader.
(§7) Data was imported into the Prism software package (Graphpad) and EC50 values were calculated using the log (inhibitor) vs, response—variable slope (Four parameters) model.

[5] = system: Capan-2 cells (KRAS G12V); experiment: 3D Cell viability assay in Capan-2 cells (Biological Example 6); type: cell-based; settings: Capan-2 (KRAS G12V) spheroids, 72 hours
Protocol: as §2, §3, §4, §5, §6, §7

[6] = system: GP2d cells (KRAS G12D); experiment: Cell-based pERK HTRF assay in GP2d cell (Biological Example 2); settings: GP2d (KRAS G12D) cells
Outline: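 HTRF read-out of pERK (excitation 320 nm, emission 615 nm) after lysates sat 4–24 h at room temperature with Eu cryptate and d2 antibodies.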

T2 sequence (P01116 2-169 isoform P01116-2 G12C): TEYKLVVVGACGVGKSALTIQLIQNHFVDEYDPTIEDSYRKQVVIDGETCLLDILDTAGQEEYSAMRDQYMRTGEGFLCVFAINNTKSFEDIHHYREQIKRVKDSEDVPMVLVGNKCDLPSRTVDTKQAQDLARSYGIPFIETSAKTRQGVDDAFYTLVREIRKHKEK
T1 sequence (P01116 2-169 isoform P01116-2): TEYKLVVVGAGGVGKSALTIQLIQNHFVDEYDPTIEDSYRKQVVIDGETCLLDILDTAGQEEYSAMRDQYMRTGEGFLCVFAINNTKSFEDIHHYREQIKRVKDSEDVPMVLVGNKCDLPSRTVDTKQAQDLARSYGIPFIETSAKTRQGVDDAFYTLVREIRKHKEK
T3 sequence (P01116 2-169 isoform P01116-2 G12D): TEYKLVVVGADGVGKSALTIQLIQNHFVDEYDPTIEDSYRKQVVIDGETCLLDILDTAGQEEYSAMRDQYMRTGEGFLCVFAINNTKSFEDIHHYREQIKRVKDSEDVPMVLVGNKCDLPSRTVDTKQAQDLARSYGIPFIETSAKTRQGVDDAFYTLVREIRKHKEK

| SMILES | IC50 [1] [nM] | IC50 [2] [nM] | IC50 [3] [nM] | IC50 ([4]; Homo sapiens, MKN-1) [nM] | IC50 ([5]; Homo sapiens) [nM] | IC50 ([6]; GP2d) [nM] | IC50 ([6]; GP2d, pERK HTRF, class symbols) [nM] | IC50 [4] [nM] | IC50 [5] [nM] | IC50 [6] [nM] | IC50 ([6]; pERK HTRF, class symbols) [nM] |
| --- | --- | --- | --- | --- | --- | --- | --- | --- | --- | --- | --- |
| CCN(c1nc(OC[C@@]23CCCN2C[C@H](F)C3)nc2c(F)c(-c3ccc(F)c4sc(N)c(C#N)c34)c(C(F)(F)F)cc12)[C@H]1CC(=O)N2CCC[C@@H]12 (atropisomer, axis not shown; (aS)) [Compound 697, 2-amino-4-((S)-4-(ethyl((1S,7aS)-3-oxohexahydro-1H-pyrrolizin-1-yl)amino)-8-fluoro-2-(((2R,7aS)-2-fluorotetrahydro-1H-pyrrolizin-7a(5H)-yl)methoxy)-6-(trifluoromethyl)quinazolin-7-yl)-7-fluorobenzo[b]thiophene-3-carbonitrile] | ≤ 100 | ≤ 100 | ≤ 100 | ≤ 100 | ≤ 100 | < 100 | < 100 |  |  |  |  |
| CCN(c1nc(OC[C@@]23CCCN2C[C@H](F)C3)nc2c(F)c(-c3ccc(F)c4sc(N)c(C#N)c34)c(C(F)(F)F)cc12)[C@H]1C[C@H](C)N(C(=O)N2CC(OC)C2)C1 (atropisomer, axis not shown) [Compound 764] | 100 to 1000 | 100 to 1000 | ≤ 100 | ≤ 100 | ≤ 100 | < 100 | < 100 |  |  |  |  |
| CCN(c1nc(OC[C@@]23CCCN2C[C@H](F)C3)nc2c(F)c(-c3ccc(F)c4sc(N)c(C#N)c34)c(C(F)(F)F)cc12)[C@H]1C[C@H](COC)N(C(=O)C2CC2)C1 (atropisomer, axis not shown) [Compound 696] | 100 to 1000 | 100 to 1000 | ≤ 100 | ≤ 100 | ≤ 100 | < 100 | < 100 |  |  |  |  |
| CCN(c1nc(OCC23CCCN2CC(F)C3)nc2c(F)c(-c3ccc(F)c4sc(N)c(C#N)c34)c(C(F)(F)F)cc12)C1CC(C)N(C(=O)C2CC2(F)F)C1 (centres unmarked) [Compound 732] | 100 to 1000 | 100 to 1000 | 100 to 1000 |  |  |  |  | ≤ 100 | ≤ 100 | < 100 | < 100 |
| C/C=C/C(=O)N1CC[C@H](N(CC)c2nc(OC[C@@]34CCCN3C[C@H](F)C4)nc3c(F)c(-c4ccc(F)c5sc(N)c(C#N)c45)c(C(F)(F)F)cc23)C1 (atropisomer, axis not shown) [Compound 674] | ≤ 100 | ≤ 100 | ≤ 100 | ≤ 100 | ≤ 100 | 100 to 1000 | < 100 |  |  |  |  |
| C[C@H]1Cn2nc(C(=O)N(C)C)cc2CN1c1nc(OC[C@@]23CCCN2C[C@H](F)C3)nc2c(F)c(-c3ccc(F)c4sc(N)c(C#N)c34)c(C(F)(F)F)cc12 (atropisomer, axis not shown) [Compound 610] | 1000 to 10000 | 100 to 1000 | 100 to 1000 | ≤ 100 | ≤ 100 | < 100 | < 100 |  |  |  |  |
| CCN(c1nc(OC[C@@]23CCCN2C[C@H](F)C3)nc2c(F)c(-c3ccc(F)c4sc(N)c(C#N)c34)c(C(F)(F)F)cc12)[C@H]1C[C@H](C)N(C(=O)OC)C1 (atropisomer, axis not shown) [Compound 704] | 100 to 1000 | 100 to 1000 | 100 to 1000 | ≤ 100 | ≤ 100 | < 100 | < 100 |  |  |  |  |
| CCN(c1nc(OC[C@@]23CCCN2C[C@H](F)C3)nc2c(F)c(-c3ccc(F)c4sc(N)c(C#N)c34)c(C(F)(F)F)cc12)[C@H]1CCN(C(=O)N2CC(F)C2)C1 (atropisomer, axis not shown) [Compound 606] | 100 to 1000 | ≤ 100 | ≤ 100 | ≤ 100 | ≤ 100 | < 100 | < 100 |  |  |  |  |
